According to a melting point compilation (Tetko et al.; mined from patent text by program, amines drawn as free bases though some values may be those of a salt):

melting point | Compound
206 °C | O=C1OC2(CCN(C(=O)Nc3cnc(-c4ccccc4)cn3)CC2)c2ccccc21
162 to 165 °C | COc1cc(C2(C)COc3c(OC)cc(C=O)cc32)ccc1O (stereo not drawn)
224 to 226 °C | CCCc1nc2cccc(C(=O)OC)c2n1Cc1ccc(-c2ccccc2-c2nc(=O)o[nH]2)cc1
135 to 138 °C | OCCCOc1ccc(-n2nc(-c3ccccc3)c3cccnc32)cc1
107 to 108 °C | CCCN(CCC)C(=O)CNc1cc(C)nc(-c2ccccc2)n1
142 to 143 °C | CCc1c(C(=O)c2cc(C)cc(C)c2)n(C/C=C/COC)c(=O)[nH]c1=O
102 to 104 °C | CCO/N=C(/C(=O)OCC)c1ccc(OCCOc2ccc3ccccc3c2)s1
212 to 213 °C | NC(=NC(=O)Cn1c(Cl)ccc1Cl)NC(=O)c1ccccc1
142 to 143 °C | COC(=O)c1cccc(-c2nc(-c3ccc(C(F)(F)F)cc3)cs2)c1
118 to 120 °C | N#CN1CCN(c2nn(-c3ccccc3)c3ccccc23)CC1
200 to 202 °C | CCNc1cc(O)c(C(=O)c2ccccc2C(=O)O)cc1C
146 to 152 °C | CCN(CCCc1c[nH]c2c(Cl)cccc12)C1COc2c(F)ccc(C(N)=O)c2C1 (stereo not drawn)
238 to 240 °C | CCOP(=O)(COCC(CO)On1cnc2c(=O)[nH]c(N)nc21)OCC (stereo not drawn)
166 °C | CCN(CC)CCN(CC)C(=O)c1ccc(Nc2ccnc3cc(Cl)ccc23)cc1
168 °C | CN(C(=O)c1ccccc1)C(=O)c1nc(Cl)c(Cl)[nH]1
164 to 165 °C | CCC(=O)C(CCCCCCCCc1ccc(O)cc1)C(=O)CC
124 to 126 °C | Cc1ccc(-c2ccc(S(C)(=O)=O)cc2)n1CC(C)(C)S
175 to 177 °C | COc1cc(-n2c(OC)nc(C(F)(F)F)cc2=O)c(F)cc1Br
126 °C | O=S(=O)(c1ccc(Cl)cc1)N1CCCC1c1cccc(F)c1 (racemic)
292 °C | COc1cccc(Sc2c(C)n(CC(=O)O)c3ccc(NS(C)(=O)=O)cc23)c1
175 °C | COc1cc(N)c(Cl)cc1C(=O)N[C@@H]1CCN(CCCC(=O)N2CCCC2)C[C@H]1O (relative stereo)
140 to 142 °C | COc1ccc(Cn2cnc3c(-c4ccco4)nc(-c4ccccc4)nc32)cc1
74 °C | Nc1ccc(Cl)cc1C=Nc1ccccc1
200 to 205 °C | CC(Oc1cc2sc(NC(=O)NCCN3CCOCC3)nc2cc1F)c1c(Cl)cccc1Cl (stereo not drawn)

melting point | Compound
131 to 133 °C | COC(=O)c1ccc(NCC=Cc2ccccc2)cn1
93 to 94 °C | CN(CCOc1ccc(CON=C(C(=O)O)c2ccccc2)cc1)c1ccccn1
> 270 °C | N#CC1=C(C2CCN(C(=N)N)CC2)Nc2n[nH]cc2C1c1cccc2nonc12 (stereo not drawn)
108 to 109 °C | CCC(O)(c1ccc(OCCN(C)C)cc1)c1cccc(Cl)c1 (stereo not drawn)
133 to 134 °C | O=C(C=Cc1ccccc1[N+](=O)[O-])CC(=O)NC1CC1
68 to 71 °C | CCC1(CC)C(=O)N(C(C)(C)C)CC(C)(C)N1OC(C)(C)C#N
42 °C | COC(=O)N(C)CCc1ccc([N+](=O)[O-])c(CS(=O)(=O)c2ccccc2)c1
255 to 257 °C | NS(=O)(=O)c1ccc(N2CC(=O)N(c3ccccc3)C2=O)cc1
81 to 83 °C | CCCCCCSC(=O)CS(=O)(=O)Nc1c(C(C)C)cccc1C(C)C
40 to 41 °C | O=C=Nc1c2c(cc3c1CCC3)CCC2
279 to 281 °C | CC1CC2CCC=C3C=C(Cl)NCC1=C32 (stereo not drawn)
> 200 °C | Cc1cccc(C(=O)O)c1N(C)S(=O)(=O)c1ccc(OCCCCNC(=O)c2cc3ccccc3o2)cc1
259 to 260 °C | CCCc1nc2sc3c(NCc4cccnc4)ncnc3c2c2c1COC(C)(C)C2
194 °C | CS(=O)(=O)c1c(C(=O)O)ccc(F)c1F
192 to 194 °C | NC(=S)N1c2ccccc2C=Cc2ccccc21
241 to 242 °C | COc1cc(Nc2cc(-c3nnc(C)o3)ccn2)cc(C(F)(F)F)c1
181 to 183 °C | CCCCc1oc2ccccc2c1C(=O)Nc1ccc(-c2ccc(O)cc2)cc1
94 to 96 °C | COC(=O)c1ccccc1-c1cc(-c2ccc(Cl)cc2Cl)no1
156 to 159 °C | CN(C)S(=O)(=O)c1cc(-c2csc(=Nc3ccccc3)n2C2CC2)ccc1Cl
70 to 74 °C | CC(C)(C)OC(=O)N1CCN(C(=O)C2CCN(C(=O)OCc3ccccc3)C2)CC1 (stereo not drawn)
218 to 220 °C | O=C(O)C(=O)c1ccc(OCC(=O)N2CCc3ccccc3C2)cc1
204 to 206 °C | O=C(O)c1cnc(N2CCCC2)c(OCC2CCCC2)n1
191 to 192 °C | CC(C)NC(=O)N1CCC(Cc2ccc(NC3=NCCN3)cc2)CC1
58 to 60 °C | COc1ccc(C2(C#Cc3cccc(NC(C)=O)c3)CCCC(=O)C2)cc1OC1CCCC1 (stereo not drawn)

melting point | Compound
176 °C | O=S(=O)(Cl)c1cccc(-c2cccc(-c3nc(-c4ccc(C(F)(F)F)cc4)cc(C(F)(F)F)n3)c2)c1
66 to 68 °C | C=CC(=O)OCCOC(=O)Nc1ccccc1
261 to 262 °C | CCCOc1ncc(NC(=O)CC(=O)O)cc1-c1nc2c(CCC)nn(C)c2c(=O)[nH]1
220 to 222 °C | Cc1ccc(CSc2nc3cc4c(cc3[nH]2)C(C)(C)C(=O)C4(C)C)nc1
64 to 66 °C | COC1=C(OC)C(=O)C2=C(CC(CCCCCCCCOc3ccc(Cl)cc3)C2)C1=O
208 to 209 °C | Cc1ccc(S(=O)(=O)Oc2c(Cl)cc(C3=NNC(=O)CC3)cc2Cl)cc1
80 to 82 °C | CC(C)c1csc(CO)n1
115 to 117 °C | O=Cc1ccn(-c2c(Cl)cc(C(F)(F)F)cc2Cl)c(=O)c1
186 to 188 °C | CC(=O)C1=CCC2C3CCC4CC(O)CCC4(C)C3CCC12C (stereo not drawn)
260 to 264 °C | O=C(O)c1ccccc1-c1cc(-c2ccc(O)cc2)[nH]n1
155 °C | CCOC(=O)c1cn(CC)c2nc(N3CCNCC3)ncc2c1=O
70 °C | Cc1cc(=O)c2ccccc2s1
227 to 228 °C | Cc1cc2c(cc1C1=NNC(=O)CC1)N(C)C(=O)CO2
101 to 102 °C | CC(C)(C)OC(=O)N[C@@H](Cc1ccccc1)C(=O)CCl
168 to 169 °C | Nc1ccnc2cc(Br)cnc12
160 to 161 °C | CCN1C(=O)C(C(=O)Nc2ccc(F)cc2F)c2cc(C(C)=O)ccc21 (stereo not drawn)
126 to 129 °C | CC(=O)NC(C)(C)c1ccc(CO)cc1
234 to 238 °C | CC(=O)NNc1c(C)cnc2c(NC(=O)c3c(Cl)cccc3Cl)ccc(C)c12
98 to 100 °C | O=[N+]([O-])c1cc([N+](=O)[O-])c(OCCO)cc1Cl
196 to 199 °C | CSc1nc(=O)n(-c2ccccc2F)c(=O)[nH]1
111 to 112 °C | O=C(COc1cccc2cccnc12)c1ccc(Cl)cc1
139 to 141 °C | CC1=C(C(N)=O)C(c2ccccc2)(N2CCN(c3ccc(F)cc3C)CC2)NO1 (stereo not drawn)

Compound | melting point
COc1ccc2nc(COc3ccc4c(c3)C(SCCC(=O)O)c3ccccc3CO4)ccc2c1 (stereo not drawn) | 174 to 175 °C
CC(C)c1cc2c(c(O)c1O)C1(C(=O)O)CCCC(C)(C)C1CC2 (stereo not drawn) | 193 to 199 °C
CN(C)C1(c2ccccc2)CCC2(OCCc3c2[nH]c2ccccc32)C(CC#N)C1 (stereo not drawn) | 260 to 267 °C
